≈ marks a conversion by molar mass, not a printed value.
Key:
[1] = test system: vancomycin-resistant enterococci; test: mean geometric MIC, vancomycin-resistant enterococci, broth micro-dilution; type: cell-based, Enterococcus faecium and Enterococcus faecalis; conditions: Table 3, representative vancomycin-resistant enterococci
Method: (§1) The antibacterial efficacy of the present teicoplanin derivatives is illustrated by the following tables. The minimal inhibitory concentrations (MICs) were determined using a standard broth micro-dilution assay.

[2] = test system: vancomycin-sensitive enterococci; test: mean geometric MIC, vancomycin-sensitive enterococci, broth micro-dilution; type: cell-based, Enterococcus faecium and Enterococcus faecalis; conditions: Table 3, representative vancomycin-sensitive enterococci
Method: as §1

[3] = test system: E. f. 180-1; test: standard broth micro-dilution MIC; type: cell-based; conditions: Table 2B; strain 180-1
Method: as §1

[4] = test system: E. f. 180; test: standard broth micro-dilution MIC; type: cell-based; conditions: Table 2B; strain 180
Method: as §1

[5] = test system: E. f. 2041; test: standard broth micro-dilution MIC; type: cell-based; conditions: Table 2B; strain 2041
Method: as §1

[6] = test system: EC14; test: standard broth micro-dilution MIC; type: cell-based; conditions: Table 2C; strain EC14
Method: as §1

[7] = test system: S. aureus 446; test: standard broth micro-dilution MIC; type: cell-based; conditions: Table 2A; strain 446
Method: as §1

[8] = test system: S. aureus 447; test: standard broth micro-dilution MIC; type: cell-based; conditions: Table 2A; strain 447
Method: as §1

[9] = test system: S. aureus 489; test: standard broth micro-dilution MIC; type: cell-based; conditions: Table 2A; strain 489
Method: as §1

[10] = test system: S. aureus 491; test: standard broth micro-dilution MIC; type: cell-based; conditions: Table 2A; strain 491
Method: as §1

[11] = test system: S. aureus S13E; test: standard broth micro-dilution MIC; type: cell-based; conditions: Table 2A; strain S13E
Method: as §1

[12] = test system: S. aureus X400; test: standard broth micro-dilution MIC; type: cell-based; conditions: Table 2A; strain X400
Method: as §1

[13] = test system: S. aureus X778; test: standard broth micro-dilution MIC; type: cell-based; conditions: Table 2A; strain X778
Method: as §1

[14] = test system: S. epi 270; test: standard broth micro-dilution MIC; type: cell-based; conditions: Table 2B; strain 270
Method: as §1

[15] = test system: S. h. 105; test: standard broth micro-dilution MIC; type: cell-based; conditions: Table 2B; strain 105
Method: as §1

[16] = test system: S. h. 415; test: standard broth micro-dilution MIC; type: cell-based; conditions: Table 2B; strain 415
Method: as §1

[17] = test system: St. pneumo P1; test: standard broth micro-dilution MIC; type: cell-based; conditions: Table 2C; strain P1
Method: as §1

[18] = test system: St. pyro C203; test: standard broth micro-dilution MIC; type: cell-based; conditions: Table 2C; strain C203
Method: as §1

[19] = test system: E. f. 276; test: standard broth micro-dilution MIC; type: cell-based; conditions: Table 2C; strain 276
Method: as §1

[20] = test system: E. gall. 245; test: standard broth micro-dilution MIC; type: cell-based; conditions: Table 2C; strain 245
Method: as §1

[21] = test system: M. cat M12; test: standard broth micro-dilution MIC; type: cell-based; conditions: Table 2C; strain M12
Method: as §1

[22] = test system: S. aureus SA1199B; test: standard broth micro-dilution MIC; type: cell-based; conditions: Table 2B; strain SA1199B
Method: as §1

[23] = test system: S. aureus SA1199R; test: standard broth micro-dilution MIC; type: cell-based; conditions: Table 2B; strain SA1199R
Method: as §1

[24] = test system: S. aureus SA1199; test: standard broth micro-dilution MIC; type: cell-based; conditions: Table 2A; strain SA1199
Method: as §1

Compound | Resist. MIC [1] | Sens. MIC [2] | MIC E. f. 180-1 [3] | MIC E. f. 180 [4] | MIC E. f. 2041 [5] | MIC EC14 [6] | MIC S. aureus 446 [7] | MIC S. aureus 447 [8] | MIC S. aureus 489 [9] | MIC S. aureus 491 [10] | MIC S. aureus S13E [11] | MIC S. aureus X400 [12] | MIC S. aureus X778 [13] | MIC S. epi 270 [14] | MIC S. h. 105 [15] | MIC S. h. 415 [16] | MIC St. pneumo P1 [17] | MIC St. pyro C203 [18] | also measured
CC(=O)NC1C(OC2c3ccc(c(Cl)c3)Oc3cc4cc(c3OC3OC(CO)C(O)C(O)C3NCc3ccc(-c5ccccc5)cc3)Oc3ccc(cc3Cl)CC3NC(=O)C(N)c5ccc(O)c(c5)Oc5cc(O)cc(c5)C(NC3=O)C(=O)NC4C(=O)NC3C(=O)NC2C(=O)NC(C(=O)O)c2cc(O)cc(OC4OC(CO)C(O)C(O)C4O)c2-c2cc3ccc2O)OC(CO)C(O)C1O (stereo not shown) [Example 3, Deacyl Teicoplanin, N^Glu-(4-phenylbenzyl) Derivative] | > 64 µg/mL | 4.6 µg/mL |  |  |  |  |  |  |  |  |  |  |  |  |  |  |  |  | 
CC(=O)NC1C(OC2c3ccc(c(Cl)c3)Oc3cc4cc(c3OC3OC(CO)C(O)C(O)C3NCc3ccc(C=Cc5ccccc5)cc3)Oc3ccc(cc3Cl)CC3NC(=O)C(N)c5ccc(O)c(c5)Oc5cc(O)cc(c5)C(NC3=O)C(=O)NC4C(=O)NC3C(=O)NC2C(=O)NC(C(=O)O)c2cc(O)cc(OC4OC(CO)C(O)C(O)C4O)c2-c2cc3ccc2O)OC(CO)C(O)C1O (stereo not shown) [Example 7] | 19.03 µg/mL | 0.76 µg/mL | 1 µg/mL (≈ 0.521 µM) | 64 µg/mL (≈ 33.4 µM) | 0.25 µg/mL (≈ 0.13 µM) | > 128 µg/mL | 2 µg/mL (≈ 1.04 µM) | 2 µg/mL (≈ 1.04 µM) | 0.25 µg/mL (≈ 0.13 µM) | 1 µg/mL (≈ 0.521 µM) | 0.5 µg/mL (≈ 0.261 µM) | 0.5 µg/mL (≈ 0.261 µM) | 2 µg/mL (≈ 1.04 µM) | 2 µg/mL (≈ 1.04 µM) | 0.25 µg/mL (≈ 0.13 µM) | 32 µg/mL (≈ 16.7 µM) | ≤ .06 µg/mL | 0.25 µg/mL (≈ 0.13 µM) | 
CC(=O)NC1C(OC2c3ccc(c(Cl)c3)Oc3cc4cc(c3OC3OC(CO)C(O)C(O)C3NCc3ccc(C=Cc5ccccc5)cc3)Oc3ccc(cc3Cl)CC3NC(=O)C(NCc5ccc(C=Cc6ccccc6)cc5)c5ccc(O)c(c5)Oc5cc(O)cc(c5)C(NC3=O)C(=O)NC4C(=O)NC3C(=O)NC2C(=O)NC(C(=O)O)c2cc(O)cc(OC4OC(CO)C(O)C(O)C4O)c2-c2cc3ccc2O)OC(CO)C(O)C1O (stereo not shown) [Example 8] | 0.59 µg/mL | 0.22 µg/mL | 0.125 µg/mL (≈ 0.0592 µM) | 0.25 µg/mL (≈ 0.118 µM) | 0.125 µg/mL (≈ 0.0592 µM) | > 64 µg/mL | 1 µg/mL (≈ 0.474 µM) | 1 µg/mL (≈ 0.474 µM) | 0.25 µg/mL (≈ 0.118 µM) | 1 µg/mL (≈ 0.474 µM) | 2 µg/mL (≈ 0.948 µM) | 1 µg/mL (≈ 0.474 µM) | 2 µg/mL (≈ 0.948 µM) | 1 µg/mL (≈ 0.474 µM) | > 64 µg/mL | > 64 µg/mL | 0.25 µg/mL (≈ 0.118 µM) | 0.125 µg/mL (≈ 0.0592 µM) | MIC E. f. 276 [19]: 0.5 µg/mL (≈ 0.237 µM); MIC E. gall. 245 [20]: 0.25 µg/mL (≈ 0.118 µM); MIC M. cat M12 [21]: 0.25 µg/mL (≈ 0.118 µM); MIC S. aureus SA1199B [22]: 2 µg/mL (≈ 0.948 µM); MIC S. aureus SA1199R [23]: 0.125 µg/mL (≈ 0.0592 µM); MIC S. aureus SA1199 [24]: 4 µg/mL (≈ 1.9 µM)
CC(=O)NC1C(OC2c3ccc(c(Cl)c3)Oc3cc4cc(c3OC3OC(CO)C(O)C(O)C3NCc3ccc(Oc5ccccc5)cc3)Oc3ccc(cc3Cl)CC3NC(=O)C(NCc5ccc(Oc6ccccc6)cc5)c5ccc(O)c(c5)Oc5cc(O)cc(c5)C(NC3=O)C(=O)NC4C(=O)NC3C(=O)NC2C(=O)NC(C(=O)O)c2cc(O)cc(OC4OC(CO)C(O)C(O)C4O)c2-c2cc3ccc2O)OC(CO)C(O)C1O (stereo not shown) [Example 10] | 1.7 µg/mL | 0.19 µg/mL | ≤ .06 µg/mL | 0.25 µg/mL (≈ 0.12 µM) | ≤ .06 µg/mL | > 64 µg/mL | 0.25 µg/mL (≈ 0.12 µM) | 1 µg/mL (≈ 0.478 µM) | 0.5 µg/mL (≈ 0.239 µM) | 1 µg/mL (≈ 0.478 µM) | 2 µg/mL (≈ 0.957 µM) | 0.25 µg/mL (≈ 0.12 µM) | 0.5 µg/mL (≈ 0.239 µM) | 0.5 µg/mL (≈ 0.239 µM) | > 64 µg/mL | 8 µg/mL (≈ 3.83 µM) | 0.125 µg/mL (≈ 0.0598 µM) | ≤ .06 µg/mL | MIC E. f. 276 [19]: 0.5 µg/mL (≈ 0.239 µM); MIC E. gall. 245 [20]: 0.25 µg/mL (≈ 0.12 µM); MIC M. cat M12 [21]: ≤ .06 µg/mL; MIC S. aureus SA1199B [22]: 0.5 µg/mL (≈ 0.239 µM); MIC S. aureus SA1199R [23]: ≤ .06 µg/mL; MIC S. aureus SA1199 [24]: 2 µg/mL (≈ 0.957 µM)
CC(=O)NC1C(OC2c3ccc(c(Cl)c3)Oc3cc4cc(c3OC3OC(CO)C(O)C(O)C3NCc3ccc(OC(F)(F)F)cc3)Oc3ccc(cc3Cl)CC3NC(=O)C(NCc5ccc(OC(F)(F)F)cc5)c5ccc(O)c(c5)Oc5cc(O)cc(c5)C(NC3=O)C(=O)NC4C(=O)NC3C(=O)NC2C(=O)NC(C(=O)O)c2cc(O)cc(OC4OC(CO)C(O)C(O)C4O)c2-c2cc3ccc2O)OC(CO)C(O)C1O (stereo not shown) [Example 13] | 45 µg/mL | 0.25 µg/mL |  | 4 µg/mL (≈ 1.93 µM) |  | > 128 µg/mL | 1 µg/mL (≈ 0.482 µM) | 1 µg/mL (≈ 0.482 µM) | 0.5 µg/mL (≈ 0.241 µM) | 0.5 µg/mL (≈ 0.241 µM) | 1 µg/mL (≈ 0.482 µM) | 0.5 µg/mL (≈ 0.241 µM) | 1 µg/mL (≈ 0.482 µM) | 0.5 µg/mL (≈ 0.241 µM) | 32 µg/mL (≈ 15.4 µM) | 8 µg/mL (≈ 3.86 µM) | 0.05 µg/mL (≈ 0.0241 µM) | ≤ .06 µg/mL | 
CC(=O)NC1C(OC2c3ccc(c(Cl)c3)Oc3cc4cc(c3OC3OC(CO)C(O)C(O)C3NCc3ccc(OC(F)(F)F)cc3)Oc3ccc(cc3Cl)CC3NC(=O)C(N)c5ccc(O)c(c5)Oc5cc(O)cc(c5)C(NC3=O)C(=O)NC4C(=O)NC3C(=O)NC2C(=O)NC(C(=O)O)c2cc(O)cc(OC4OC(CO)C(O)C(O)C4O)c2-c2cc3ccc2O)OC(CO)C(O)C1O (stereo not shown) [Example 14] | > 32 µg/mL | 5.28 µg/mL | 8 µg/mL (≈ 4.21 µM) | > 128 µg/mL | 8 µg/mL (≈ 4.21 µM) | > 128 µg/mL | 4 µg/mL (≈ 2.11 µM) | 8 µg/mL (≈ 4.21 µM) | 2 µg/mL (≈ 1.05 µM) | 2 µg/mL (≈ 1.05 µM) | 2 µg/mL (≈ 1.05 µM) | 2 µg/mL (≈ 1.05 µM) | 4 µg/mL (≈ 2.11 µM) | 2 µg/mL (≈ 1.05 µM) | 1 µg/mL (≈ 0.526 µM) | > 128 µg/mL | 1 µg/mL (≈ 0.526 µM) | 1 µg/mL (≈ 0.526 µM) | 
Deacyl Teicoplanin, Bis(10-undecen-1-yl) Derivative [Example 4] | 1.2 µg/mL | 1.5 µg/mL |  | 8 µg/mL |  | > 128 µg/mL | 4 µg/mL | 8 µg/mL | 2 µg/mL | 4 µg/mL | 2 µg/mL | 2 µg/mL | 4 µg/mL | 2 µg/mL | 16 µg/mL | 16 µg/mL | 1 µg/mL | 0.5 µg/mL | 

Reference: patent US5916873A, “Teicoplanin derivatives” (Eli Lilly and Company, priority 1998, dated 1999)
